Assay results published in patent US6828315B1, “1-Amino triazoloc4,3-a! quinazoline-5-ones and/or -5-thiones inhibiting phosphodiesterase IV” (Warner-Lambert LLC, priority 1999, dated 2004).

What was measured:
[1] = test system: TNFα production in plasma; assay: In vivo TNFα model in Wistar rat; conditions: po, 1.5 h, 10 mg/kg p.o. 30 min before LPS i.p., plasma TNFα 90 min after LPS, male Wistar rats, read-out: % Inhibition to 10 mg/kg
Excerpt: The TFNα is a cytokin playing a central role in inflammation mechanisms. Its production may be induced by injection of lipopolysaccharid (LPS). It has been shown that the intracellular AMPc increase, produced in particular by PDE4 inhibitors, decreases the TNFα production in in vitro and in vivo models. Therefore it matters here to quantify in vivo anti-inflammatory potential of the compounds of the invention, administrated by oral route (p.o.) by measuring inhibition of TNFα production in plasma in rat, the latter having received a intraperitoneal injection (i.p.) of lipolysaccharid (LPS). The treatment by the compounds of the invention or the carrier is administrated by oral route in male Wistar rats, 30 min. before LPS injection. The rats are sacrificed 90 min. after LPS stimulation, the blood is harvested on EDTA and TNFα concentration is measured in each plasma sample.

[2] = biological target: type 4 phosphodiesterases (PDE4); assay: Inhibition of the phosphodiesterase (PDE4), enzymatic preparation from line U937; format: biochemical; conditions: PDE4 from cytosolic preparation of human cell line U937
Protocol: The capacity of the formula (I) compounds of the invention to inhibit the cyclic nucleotide phosphodiesterases is evaluated by their Cl50 measurement (necessary concentration to inhibit 50% of enzymatic activity).
The type 4 phosphodiesterases are obtained from a cytosolic preparation extracted from the human origin cellular line U937 according to a method adapted from T. J. Torphy and al., 1992, J.Pharm.Exp. Ther. 263: 1195-1205
The other classes of phosphodiesterases are obtained after partial purification FPLC on Mono Q column. (anion exchange column) according to a method adapted from Lavan B. E., Lakey T., Houslay M. D. Biochemical Pharmacology, 1989, 38(22), 4123-4136., and from Silver P. J and al., 1988, Eur.J. Pharmacol. 150: 85-94, either, from human origin cellular lines for PDE 1 (monocytar line TPH1) and PDE5 (line MCF7 issued from an adenocarcinoma), or from dog aorta for PDE 3, or for the human PDE3A, from gene cloning in insect cells SF21 in baculovirus, according to a method adapted from Luckow, V. A. and al., 1991 in Recombinant DNA Technology&Applications.,eds. Prokop, Bajpai,R. K.&Ho,C. S., pp97-152. The enzymatic activity measurement of the different PDE classes, and in particular the PDE 4, is performed according to a method adapted from W. J. Thompson and al. 1979, Advances in Cyclic Nucleotide Research, Vol. 10: 69-92, ed. G. Brooker and al. Raven Press, NY.
For the Cl50 determination, the enzymatic activity is measured in the presence of inhibitor within concentration margins of 0.1 to 100 μM.
The following table illustrates the PDE4 inhibitory activity from enzymatic preparation obtained from the line U937.

Row | Compound | melting point [°C] | IC50 [2] [nM] | change in vivo at 10 mg/kg [1] [%]
1 | N#Cc1ccc(Cn2c(=O)c3cc(Br)ccc3n3c(N4CCCC4)nnc23)cc1 [Compound 46, 4-(7-Bromo-5-oxo-1-pyrrolidin-1-yl-5H-[1,2,4]triazolo[4,3-a]quinazolin-4-ylmethyl)-benzonitrile] | 116 | 90 | -58
2 | O=c1c2cc(Br)ccc2n2c(N3CCCCCC3)nnc2n1Cc1ccccc1 [Compound 163, 1-(azepan-1-yl)-4-benzyl-7-bromo-4H-[1,2,4]triazolo[4,3-a]-quinazolin-5-one] | – | – | -64
3 | Cc1ccc2c(c1)c(=O)n(Cc1cccnc1)c1nnc(N3CCCCCC3)n21 [Compound 91, 1-Azepan-1-yl-7-methyl-4-pyridin-3-ylmethyl-4H-[1,2,4]triazolo[4,3-a]quinazolin-5-one] | 175 | – | -70
4 | COc1ccc(Cn2c(=O)c3cc(Br)ccc3n3c(N4CCCC4)nnc23)cc1 [Compound 49, 7-Bromo-4-(4-methoxy-benzyl)-1-pyrrolidin-1-yl-4H-[1,2,4]triazolo[4,3-a]quinazolin-5-one] | 169 | 80 | –
5 | O=c1c2cc(Cl)ccc2n2c(N3CCCCCC3)nnc2n1Cc1ccc(Cl)cc1 [Compound 11, 1-(azepan-1-yl)-7-chloro-4-(4-chlorobenzyl)-4H-[1,2,4]triazolo[4,3-a]quinazolin-5-one] | 166 | 80 | –

Continued by falling IC50 [2], values first:

Row | melting point [°C] | IC50 [2] [nM] | Compound | change in vivo at 10 mg/kg [1] [%]
6 | 173 | 29 | Cc1ccc2c(c1)c(=O)n(CC=Cc1ccccc1)c1nnc(N3CCCC3)n21 [Compound 98, 7-Methyl-4-(3-phenyl-allyl)-1-pyrrolidin-1-yl-4H-[1,2,4]triazolo[4,3-a]quinazolin-5-one] | -75
7 | 185 | 20 | COc1ccc(Cn2c(=O)c3cc(Br)ccc3n3c(N4CCCCCC4)nnc23)cc1OC [Compound 35, 1-Azepan-1-yl-7-bromo-4-(3,4-dimethoxy-benzyl)-4H-[1,2,4]triazolo[4,3-a]quinazolin-5-one] | -51
8 | 185 | 14 | O=c1c2cc(Br)ccc2n2c(N3CCCCCC3)nnc2n1C/C=C/c1cccnc1 [Compound 40, 1-Azepan-1-yl-7-bromo-4-((E)-3-pyridin-3-yl-allyl)-4H-[1,2,4]triazolo[4,3-a]quinazolin-5-one] | –
